US20070231838A1, “Method for the assay of rock kinase activity in cells” (priority 2006, published 2007)

System: ROCK kinase
Test: Immunoblotting of MYPT1 phosphorylation in Panc-1 cells treated with ROCK inhibitors
Type: cell-based, human
Conditions: for rank order of potency for reduction of MYPT1 phosphorylation: 1 h incubation, immunoblotting (FIG. 5A)
Procedure: FIG. 3: Extraction of cytoskeletal substrates of ROCK1/ROCK2 from Pancd cell extracts: (A) Panc-1 cells were incubated in the presence and absence of 10 μM ROCK inhibitor Y27632 for 1 h followed by lysis in the indicated buffers. Equal fractions of cell lysate were analyzed by immunoblotting for pMYPT1 (T696 or T853), total MYPT1, pMLC (S19) and total MLC. (B) 10 μL aliquots of Panc-1 cell lysate prepared in PROTEOEXTRACT® buffer (or buffer alone for control wells) were diluted in buffer A as indicated prior to addition to MYPT1 antibody-coated ELISA assay plate wells. Quantitation of the extent of MYPT1 (T853) phosphorylation was performed in triplicate assay wells as described in the methods section. Results plotted are mean signal intensities, error bars represent Standard Deviations.
FIG. 4: Time course of reduction of MYPT1 phosphorylation bv ROCK inhibitors in Pancl cells: Panc-1 cells were incubated in the presence and absence of 10 μM ROCK inhibitor Y27632 for the indicated time points followed by lysis in SDS-PAGE sample buffer. Equal fractions of cell lysate were then analyzed by immunoblotting for pMYPT1 (T696 or T853) and total MYPT1 protein.
FIG. 5: Effect of ROCK inhibitors on MYPT1 (T853) phosphorylation in Panc-1 cells: (A) Panc-1 cells were incubated in the presence and absence of the indicated concentrations of ROCK inhibitors H1152, Y27632 or HA1077 for 1 h, followed by lysis in SDS-PAGE sample buffer. Equal fractions of cell lysate were then analyzed by immunoblotting for pMYPT1 (T696 or T853) and total MYPT1 protein. (B) Panc1 cells were grown in 96-well culture plates, and incubated for 1 h with the indicated concentrations of compound ROCK inhibitors H1152, Y27632 or HA1077. Lysates were then prepared in PROTEOEXTRACT® buffer, and analyzed in the pMYPT1 (T853) ELISA assay as described in the Methods section.
Human cancer cell lines were purchased from the American Type Culture Collection (ATCC). Panc-1 cells were grown in Dulbecco's modified Eagle's medium with 2 mM L-glutamine adjusted to contain 3.7 g/L sodium bicarbonate and 4.5 g/L glucose, 10% fetal bovine serum. All other cell lines were grown in media as prescribed by the ATCC, containing 10% FCS.
Lysates were prepared from cultured cells, following a brief rinse in PBS, using several different buffers. Buffer A (50 mM Tris-HCl, pH 7.4, 150 mM NaCl, 10% glycerol, 1% Triton X-100, 0.5 mM EDTA, 1 mM […], […], lmg/ml aprotinin) and buffer B (RIPA buffer: Sigma catalog #R0278, containing protease and phosphatase inhibitor cocktails Sigma catalog #P2850, P5726 P8340) were added to the cells in culture dishes, the cells were scraped from the dish and the lysates transferred to eppendorf tubes and incubated at 4° C. for 20 min. Lysates were then clarified by centrifugation at 10,000 g, and the resulting supernatants were stored at −80° C. prior to the addition of SDS-PAGE sample buffer and analysis by immunoblotting. Alternatively, lysates were prepared by the direct addition of SDS-PAGE sample buffer to the cultures, and samples were prepared for analysis by sonication for 5 min followed by heating to 100° C. for 5 min. Alternatively, lysates were prepared by the addition of PROTEOEXTRACT® solution (complete mammalian proteome extraction kit, Calbiochem, #539779) including 16.5 IU of BENZONASE® (Novagen, Inc., Madison, Wis.) followed by shaking for 30 minutes at room temperature. Samples prepared by this method were either diluted directly into SDS-PAGE sample buffer for analysis by immunoblotting, or were diluted 10-fold in buffer A for analysis in antibody capture ELISA assays. Tumor lysates were prepared using the PROTEOEXTRACT® complete mammalian proteome extraction kit (Calbiochem, #539779). Approximately 300 mg samples of tumor sample were homogenized and dispersed in […] resuspension buffer, then 2.4 mL extraction reagent and 150 μl reducing agent were added and the samples were mixed thoroughly. […]

[1] = 10 μM for 1 h prior to lysis, immunoblotting (FIG. 3)
[2] = 10 μM, time course up to 24 h (FIG. 4)

Compound: Cc1cncc2cccc(S(=O)(=O)N3CCCNC[C@@H]3C)c12 [H1152]
- rank order of potency for reduction of MYPT1 phosphorylation: H1152>Y27632>HA1077

Compound: O=S(=O)(c1cccc2cnccc12)N1CCCNCC1 [HA1077]
- rank order of potency for reduction of MYPT1 phosphorylation: H1152>Y27632>HA1077

Compound: C[C@@H](N)[C@H]1CC[C@H](C(=O)Nc2ccncc2)CC1 [Y27632]
- level of MYPT1 phosphorylation [1]: significantly reduced
- total MYPT1 protein content of the extracts [1]: without affecting significantly
- incubation time necessary to maximally reduce steady-state phosphorylation of MYPT1 T696 [2]: at least 8 hours
- time to maximal reduction of steady-state phosphorylation of MYPT1 (T853) [2]: 30 to 60 min
- rank order of potency for reduction of MYPT1 phosphorylation: H1152>Y27632>HA1077
